Results taken from patent publication US20240101556A1, “COMPOUNDS AND COMPOSITIONS FOR TREATING CONDITIONS ASSOCIATED WITH STING ACTIVITY” (IFM Due, Inc., priority 2021, published 2024).

Molecular target: T1, hSTING (Homo sapiens, UniProt Q86WV6, G230A/H232R/R293Q/R71H)
T1 construct: host or cells: THP1-Dual KO-IFNAR2 cells (human monocytic line)
Assay: STING reporter assay (luciferase) in THP1-Dual KO-IFNAR2 cells stimulated with 2′3′cGAMP
Assay type: cell-based
Conditions: 2′3′cGAMP 15 μM with Lipofectamine 2000, 24 h, luciferase reporter activity, compounds 0.0017-100 μM
Protocol: STING pathway activation by the compounds described herein was measured using THP1-Dual™ cells (KO-IFNAR2).
THP1-Dual™ KO-IFNAR2 Cells (obtained from invivogen) were maintained in RPMI, 10% FCS, 5 ml P/S, 2 mM L-glut, 10 mM Hepes, and 1 mM sodium pyruvate. Compounds were spotted in empty 384 well tissue culture plates (Greiner 781182) by Echo for a final concentration of 0.0017-100 μM. Cells were plated into the TC plates at 40 μL per well, 2×10E6 cells/mL. For activation with STING ligand, 2′3′cGAMP (MW 718.38, obtained from Invivogen), was prepared in Optimem media.
The following solutions were prepared for each 1×384 plate: • Solution A: 2 mL Optimem with one of the following stimuli: • 60 μL of 10 mM 2′3′cGAMP→150 μM stock • Solution B: 2 mL Optimem with 60 μL Lipofectamine 2000→Incubate 5 min at RT
2 mL of solution A and 2 m1 Solution B was mixed and incubated for 20 min at room temperature (RT). 20 μL of transfection solution (A+B) was added on top of the plated cells, with a final 2′3′cGAMP concentration of 15 μM. The plates were then centrifuged immediately at 340 g for 1 minute, after which they were incubated at 37° C., 5% CO2, >98% humidity for 24 h. Luciferase reporter activity was then measured. EC50 values were calculated by using standard methods known in the art.
Luciferase reporter assay: 10 μL of supernatant from the assay was transferred to white 384-plate with flat bottom and squared wells. One pouch of QUANTI-Luc™ Plus was dissolved in 25 mL of water. 100 μL of QLC Stabilizer per 25 mL of QUANTI-Luc™ Plus solution was added. 50 μL of QUANTI-Luc™ Plus/QLC solution per well was then added. Luminescence was measured on a Platereader (e.g., Spectramax I3X (Molecular Devices GF3637001)).
Luciferase reporter activity was then measured. EC50 values were calculated by using standard methods known in the art.

T1 sequence (Q86WV6 whole entry R71H/G230A/H232R/R293Q): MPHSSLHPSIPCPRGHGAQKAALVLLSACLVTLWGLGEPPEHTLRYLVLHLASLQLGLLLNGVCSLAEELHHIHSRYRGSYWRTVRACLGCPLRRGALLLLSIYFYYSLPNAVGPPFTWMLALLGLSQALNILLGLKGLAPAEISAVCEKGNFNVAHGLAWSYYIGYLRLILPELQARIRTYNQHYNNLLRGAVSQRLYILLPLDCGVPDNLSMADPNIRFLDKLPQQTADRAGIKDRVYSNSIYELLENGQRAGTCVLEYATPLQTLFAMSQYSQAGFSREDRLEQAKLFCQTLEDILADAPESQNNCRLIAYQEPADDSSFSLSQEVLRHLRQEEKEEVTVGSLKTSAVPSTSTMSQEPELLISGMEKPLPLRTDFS

| SMILES | EC50 [µM] |
| --- | --- |
| CC(C)OC1CCC(N2CCN(c3ccc4[nH]cc(NC(=O)Nc5ccc(C(F)(F)F)cc5)c4n3)CC2)CC1 (stereo not shown) [Compound 113, 3-(5-{4-[4-(propan-2-yloxy)cyclohexyl]piperazin-1-yl}-1H-pyrrolo[3,2-b]pyridin-3-yl)-1-[4-(trifluoromethyl)phenyl]urea] | 5 to 100 |
| CC(CC(F)(F)F)N1CCN(c2ccc3[nH]cc(NC(=O)Nc4ccc(C(F)(F)F)cc4)c3n2)CC1 (stereo not shown) [Compound 114, 3-{5-[4-(4,4,4-trifluorobutan-2-yl)piperazin-1-yl]-1H-pyrrolo[3,2-b]pyridin-3-yl}-1-[4-(trifluoromethyl)phenyl]urea] | 5 to 100 |
| O=C(Nc1ccc(C(F)(F)F)cc1)Nc1c[nH]c2ccc(N3CCN(C4CCC(C(F)(F)F)CC4)CC3)nc12 (stereo not shown) [Compound 115, 3-(5-{4-[4-(trifluoromethyl)cyclohexyl]piperazin-1-yl}-1H-pyrrolo[3,2-b]pyridin-3-yl)-1-[4-(trifluoromethyl)phenyl]urea] | 5 to 100 |
| O=C(Nc1ccc(C(F)(F)F)cc1)Nc1c[nH]c2ccc(N3CCN(C4CCC(F)(F)CC4)CC3)nc12 [Compound 116, 3-{5-[4-(4,4-difluorocyclohexyl)piperazin-1-yl]-1H-pyrrolo[3,2-b]pyridin-3-yl}-1-[4-(trifluoromethyl)phenyl]urea] | 5 to 100 |
| O=C(Nc1ccc(C(F)(F)F)cc1)Nc1c[nH]c2ccc(N3CCN(CC4CC4)CC3)nc12 [Compound 117, 3-{5-[4-(cyclopropylmethyl)piperazin-1-yl]-1H-pyrrolo[3,2-b]pyridin-3-yl}-1-[4-(trifluoromethyl)phenyl]urea] | 5 to 100 |
| O=C(Nc1ccc(C(F)(F)F)cc1)Nc1c[nH]c2ccc(N3CCN(CC(F)(F)F)CC3)nc12 [Compound 118, 1-(5-(4-(2,2,2-trifluoroethyl)piperazin-1-yl)-1H-pyrrolo[3,2-b]pyridin-3-yl)-3-(4-(trifluoromethyl)phenyl)urea] | 5 to 100 |
| O=C(Nc1ccc(C(F)(F)F)cc1)Nc1c[nH]c2ccc(N3CCN(Cc4cccnc4)CC3)nc12 [Compound 119, 3-(5-{4-[(pyridin-3-yl)methyl]piperazin-1-yl}-1H-pyrrolo[3,2-b]pyridin-3-yl)-1-[4-(trifluoromethyl)phenyl]urea] | 1 to 5 |
| O=C(Nc1ccc(C(F)(F)F)cc1)Nc1c[nH]c2ccc(N3CCN(Cc4ccccn4)CC3)nc12 [Compound 120, 3-(5-{4-[(pyridin-2-yl)methyl]piperazin-1-yl}-1H-pyrrolo[3,2-b]pyridin-3-yl)-1-[4-(trifluoromethyl)phenyl]urea] | 5 to 100 |
| O=C(Nc1ccc(C(F)(F)F)cc1)Nc1c[nH]c2ccc(N3CCN(Cc4ccccc4)CC3)nc12 [Compound 121, 3-[5-(4-benzylpiperazin-1-yl)-1H-pyrrolo[3,2-b]pyridin-3-yl]-1-[4-(trifluoromethyl)phenyl]urea] | 5 to 100 |
| COCCN1CCN(c2ccc3[nH]cc(NC(=O)Nc4ccc(C(F)(F)F)cc4)c3n2)CC1 [Compound 122, 3-{5-[4-(2-methoxyethyl)piperazin-1-yl]-1H-pyrrolo[3,2-b]pyridin-3-yl}-1-[4-(trifluoromethyl)phenyl]urea] | 5 to 100 |
| O=C(Nc1ccc(C(F)(F)F)cc1)Nc1c[nH]c2ccc(N3CCN(CCC(F)(F)F)CC3)nc12 [Compound 123, 1-[4-(trifluoromethyl)phenyl]-3-{5-[4-(3,3,3-trifluoropropyl)piperazin-1-yl]-1H-pyrrolo[3,2-b]pyridin-3-yl}urea] | 5 to 100 |
| CC(C)CN1CCN(c2ccc3[nH]cc(NC(=O)Nc4ccc(C(F)(F)F)cc4)c3n2)CC1 [Compound 124, 3-{5-[4-(2-methylpropyl)piperazin-1-yl]-1H-pyrrolo[3,2-b]pyridin-3-yl}-1-[4-(trifluoromethyl)phenyl]urea] | 5 to 100 |
| CN1CCN(c2ccc3[nH]cc(NC(=O)Nc4ccc(C(F)(F)F)cc4)c3n2)CC1 [Compound 125, 1-(5-(4-methylpiperazin-1-yl)-1H-pyrrolo[3,2-b]pyridin-3-yl)-3-(4-(trifluoromethyl)phenyl)urea] | 5 to 100 |
| CCN1CCN(c2ccc3[nH]cc(NC(=O)Nc4ccc(C(F)(F)F)c(Cl)c4)c3n2)CC1 [Compound 126, 1-(3-chloro-4-(trifluoromethyl)phenyl)-3-(5-(4-ethylpiperazin-1-yl)-1H-pyrrolo[3,2-b]pyridin-3-yl)urea] | 5 to 100 |
| CCN1CCN(c2ccc3[nH]cc(NC(=O)Nc4ccc(C(F)(F)F)cc4)c3n2)CC1 [Compound 127, 1-(5-(4-ethylpiperazin-1-yl)-1H-pyrrolo[3,2-b]pyridin-3-yl)-3-(4-(trifluoromethyl)phenyl)urea] | 5 to 100 |
| CC(C)(C)OC(=O)N1CCN(c2ccc3[nH]cc(NC(=O)Nc4ccc(C(F)(F)F)cc4)c3n2)CC1 [Compound 128, tert-butyl 4-(3-(3-(4-(trifluoromethyl)phenyl)ureido)-1H-pyrrolo[3,2-b]pyridin-5-yl)piperazine-1-carboxylate] | 5 to 100 |
| O=C(Nc1ccc(C(F)(F)F)cc1)Nc1c[nH]c2ccc(N3CCN(c4ccccc4)CC3)nc12 [Compound 129, 1-(5-(4-phenylpiperazin-1-yl)-1H-pyrrolo[3,2-b]pyridin-3-yl)-3-(4-(trifluoromethyl)phenyl)urea] | 0.2 to 1 |
| CC(C)c1cnn(-c2ccc3[nH]cc(NC(=O)Nc4ccc(C(F)(F)F)cc4)c3n2)c1 [Compound 131, 1-(5-(4-isopropyl-1H-pyrazol-1-yl)-1H-pyrrolo[3,2-b]pyridin-3-yl)-3-(4-(trifluoromethyl)phenyl)urea] | 5 to 100 |
| CC(C)c1ccn(-c2ccc3[nH]cc(NC(=O)Nc4ccc(C(F)(F)F)cc4)c3n2)n1 [Compound 132, 1-(5-(3-isopropyl-1H-pyrazol-1-yl)-1H-pyrrolo[3,2-b]pyridin-3-yl)-3-(4-(trifluoromethyl)phenyl)urea] | 5 to 100 |
